Measurements: article PMC7767178 (International Journal of Molecular Sciences, 2020)
Where “and” joins values, the source holds several entries; their conditions need not be identical. Identical values can stand only once. Like-named read-outs stand apart in the source and are kept apart here. Positions of bridges follow the written chain, without caps; N, C: chain ends. Residues, ends and D or L forms follow the SMILES beside them.

Key:
A. veronii ACCC61732 [1] = experiment: microbe, parasite or virus in culture; assay type: cell-based; settings: Aeromonas veronii, ACCC61732, read-out: MICa, MIC of the antibiotic used alone
Source text: The checkerboard microtiter assay was used to determine the combinations of peptides with different antibiotics (including quinolone, rifamycin, peptide antibiotics, aminoglycoside, tetracycline, and chloramphenicol). […] The fractional inhibitory concentration (FIC) was used to calculate the combination effects using the following formula: FIC index (FICI) = MIC(peptide in combination)/MIC(peptide alone) + MIC(antibiotic in combination)/MIC(antibiotic alone). FICI ≤ 0.5 means synergistic, 0.5 < FICI ≤ 1 means additive action, 1 < FICI ≤ 4 means indifference, and FICI > 4 means antagonism.

A. veronii ACCC61732 [2] = experiment: ATP release, BacTiter-Glo; assay type: cell-based; settings: 8×, 16× and 32× MIC, 60 min, 37 °C, luminescence, n = 3
Experimental: The assay was performed for three biological replicates at 37 °C, with luminescence recorded using a Tecan Infinite M1000 Pro plate reader. The fold reduction of ATP was calculated as: Fold reduction ATP = 1 − (Ltreat − Lmedia/Lcontrol − Lmedia), where Ltreat is the luminescence of treated cells, Lmedia is the luminescence of MHB without cells, and Lcontrol is the luminescence of untreated cells. Resultant graphs show mean (n = 3) and SEM for each data point, prepared in Prism 7 [46].

[3] = tested on: A. veronii ACCC61732 mature biofilms; experiment: Eradication of mature biofilms, crystal violet; assay type: cell-based; settings: 16× MIC, 24 h on 24 h biofilm
Experimental: A. veronii ACCC61732 cells (1 × 10^8 CFU/mL) were cultured in TSB medium in the 96-well plates at 37 °C for 24 h.

MDR A. veronii ACCC61732 = experiment: Mouse peritonitis model, survival; assay type: in vivo, ICR mice; settings: seven days, six mice
Experimental: […]. The mice injected with only bacteria or saline served as the negative and blank control. The mouse survival was recorded daily for seven days.

A. veronii ACCC61732 [4] = experiment: Organ injury in peritonitis model, histology; assay type: in vivo, mice; settings: peptides 5 μmol/kg, CIP 1 μmol/kg
Experimental: Livers, kidneys, spleens, and lungs were removed from mice at 24 h and five days post treatment to evaluate the organ injury. After washing with PBS, the organs were fixed in 4% paraform-aldehyde for 24 h at 4 °C, dehydrated by a graded series of ethanol (75‒95%), and infiltrated with xylene. The organs were then embedded in paraffin wax, sectioned, and stained with hematoxylin and eosin. Finally, the tissue samples were fixed and observed by the light microscope. The CIP-treated mice served as the positive control and the PBS group served as the negative control.

A. veronii CL0901 = tested on: A. veronii CL0901
Experimental: (§1) Briefly, the tested strains including Gram-negative bacteria, Gram-positive bacteria, and fungi were cultured to the logarithmic growth phase, diluted to 10^5 CFU/mL, and added into 96-well plates (90 μL/well). Two-fold serial dilutions of peptides or antibiotics dissolved in PBS were added to each well (10 μL/well). […] All experiments were repeated three times.

[5] = tested on: Aeromonas veronii ACCC61732
Experimental: as §1

[6] = tested on: Pseudomonas aeruginosa CICC21630
Experimental: as §1

S. aureus ATCC25923 = tested on: S. aureus ATCC25923
Experimental: as §1

S. aureus ATCC546 = tested on: S. aureus ATCC546
Experimental: as §1

S. hyicus NCTC10350 = tested on: S. hyicus NCTC10350
Experimental: as §1

A. veronii ATCC35624 = assay type: cell-based
[7] = tested on: Salmonella typhimurium ATCC14028; assay type: cell-based
A. veronii = experiment: MIC, range over strains; assay type: cell-based; settings: range over the strains of Table 2
Source text: (§2) All experiments were repeated three times.

Escherichia coli = experiment: MIC, range over strains; assay type: cell-based; settings: range over the strains of Table 2
Source text: as §2

A. veronii ACCC61732 [8] = experiment: Outer membrane permeabilization, NPN assay; assay type: cell-based; settings: NPN fluorescence, 1×–4× MIC
Experimental: The outer membrane permeabilization abilities of peptides were determined using the fluorescent NPN assay. Mid-log phase A. veronii ACCC61732 was collected by centrifugation, washed twice, and then suspended in N-2-hydroxyethylpiperazine-n-2-ethane sulfonic acid (HEPES) buffer (pH 7.4) to an OD600nm = 0.4. […] Fluorescence intensity was recorded until no further increase with a microplate reader (excitation/emission, 328/438 nm).

A. veronii ACCC61732 [9] = experiment: Inner membrane permeability, PI staining, flow cytometry; assay type: cell-based
Experimental: To analyze effects of peptides on the inner membrane, A. veronii ACCC61732 cells were cultured to mid-log phase at 37 °C in MHB medium, washed thrice with PBS, and resuspended in the PBS buffer to 1 × 10^8 CFU/mL. […] After fixation with PI, the samples were detected by a fluorescent inverted microscope and FACS Calibur Flow Cytometer (BD, San Jose, CA, USA), respectively. Cell Quest Pro software (BD, San Jose, CA, USA) was used for the data analysis.

in vitro = settings: mouse, 25% mouse serum
[10] = A. veronii CL0901, broth dilution, 37 °C, 16–18 h, three experiments
[11] = Aeromonas veronii ACCC61732 (MDR), broth dilution, 37 °C, 16–18 h, three experiments
[12] = Pseudomonas aeruginosa CICC21630, broth dilution, 37 °C, 16–18 h, three experiments
[13] = S. aureus ATCC25923, broth dilution, 37 °C, 16–18 h, three experiments
[14] = S. aureus ATCC546, broth dilution, 37 °C, 16–18 h, three experiments
[15] = A. veronii ATCC35624, broth dilution, 37 °C, 16–18 h, three experiments
[16] = Salmonella typhimurium ATCC14028, broth dilution, 37 °C, 16–18 h, three experiments

Row | SMILES | ATP release (A. veronii ACCC61732 [2]) | inhibition of mature biofilms [3] [%] | effect on injury of liver, spleen, kidney and lung (A. veronii ACCC61732 [4]) | MIC (A. veronii CL0901) [µM] | MIC (A. veronii CL0901; [10]) [µg/mL] | MIC [5, 11] | MIC [6, 12] [µg/mL] | MIC (S. aureus ATCC25923; [13]) [µg/mL] | MIC (S. aureus ATCC546; [14]) [µg/mL] | MIC (S. hyicus NCTC10350; NCTC10350) [µM] | MIC (A. veronii ATCC35624; [15]) [µg/mL] | MIC (A. veronii ATCC35624; ATCC35624) [µM] | MIC ([7]; ATCC14028) [µM] | MIC [7, 16] [µg/mL] | MIC values against A. veronii (A. veronii) [µM] | MIC values against Escherichia coli (Escherichia coli) [µM] | Permeability (PI-positive cells) (A. veronii ACCC61732 [9]; 1× MIC, 0.5 h) [%] | Permeability (PI-positive cells) (A. veronii ACCC61732 [9]; 1× MIC, 2 h) [%] | Permeability (PI-positive cells) (A. veronii ACCC61732 [9]; 2× MIC, 0.5 h) [%] | Permeability (PI-positive cells) (A. veronii ACCC61732 [9]; 2× MIC, 2 h) [%] | other results
1 | O=C(O)c1cn(C2CC2)c2cc(N3CCNCC3)c(F)cc2c1=O [CIP, ciprofloxacin, reference compound] | 7.06–47.60% | 89.87 | weak therapeutic effect |  |  |  |  |  |  |  |  |  |  |  |  |  |  |  |  |  | MIC (A. veronii ACCC61732 [1]): 0.125 µg/mL; survival rate of mice (MDR A. veronii ACCC61732; 1 μmol/kg i.p. 0.5 h after infection): 83.33%
2 | CC(C)[C@H]1NC(=O)CNC(=O)[C@@H](CC(N)=O)NC(=O)[C@@H](CCCNC(=N)N)NC(=O)[C@@H](Cc2ccc(O)cc2)NC(=O)[C@@H](C(C)C)NC(=O)[C@H](NC(=O)[C@H](NC(=O)[C@@H](CC(N)=O)NC(=O)[C@@H](Cc2c[nH]c3ccccc23)NC(=O)[C@@H](C)NC(=O)[C@@H](Cc2ccccc2)NC(=O)CN)C(C)C)CSSC[C@H](C(=O)N[C@H](Cc2c[nH]cn2)C(=O)N[C@H](CCCNC(=N)N)C(=O)N[C@H](CCCNC(=N)N)C(=O)N[C@H](C)C(=O)N[C@H](CC(N)=O)C(N)=O)NC(=O)[C@@H](C(C)C)NC(=O)[C@@H](CCCNC(=N)N)NC1=O [DN6NH2] | 84.34–86.15% | 91.90 | remarkably alleviated the injury of the liver and spleen | 12.93 | 32 | 4 μg/mL and 1.62 μM | 8 | 8 | 16 | 3.23 | 64 | 25.86 | 3.23 | 8 | 1.62 to 25.86 | 1.62 to 3.23 | 0 | 3.42 | 9.16 | 9.83 | MIC ([6]; CICC21630): 3.23 µM; MIC (S. aureus ATCC25923; ATCC25923): 3.23 µM; MIC (S. aureus ATCC546; ATCC546): 6.46 µM; MIC (S. hyicus NCTC10350; S. hyicus NCTC10350, broth dilution, 37 °C, 16–18 h, three experiments): 8 µg/mL; ability to penetrate the outer membrane (A. veronii ACCC61732 [8]): higher ability to penetrate the outer membrane than N6NH2; Permeability (PI-positive cells) (A. veronii ACCC61732 [9]; 4× MIC, 0.5 h): 41.93%; Permeability (PI-positive cells) (A. veronii ACCC61732 [9]; 4× MIC, 2 h): 33.73%; remaining at 2 h (in vitro): 92.7%; remaining at 4.5 h (in vitro): 78.4%
3 | CC(C)[C@@H]1NC(=O)CNC(=O)[C@H](CC(N)=O)NC(=O)[C@H](CCCNC(=N)N)NC(=O)[C@H](Cc2ccc(O)cc2)NC(=O)[C@H](C(C)C)NC(=O)[C@@H](NC(=O)[C@@H](NC(=O)[C@H](CC(N)=O)NC(=O)[C@H](Cc2c[nH]c3ccccc23)NC(=O)[C@H](C)NC(=O)[C@H](Cc2ccccc2)NC(=O)CN)C(C)C)CSSC[C@@H](C(=O)N[C@@H](Cc2c[nH]cn2)C(=O)N[C@@H](CCCNC(=N)N)C(=O)N2CCC[C@H]2C(=O)N[C@@H](C)C(=O)N[C@@H](CC(N)=O)C(N)=O)NC(=O)[C@H](C(C)C)NC(=O)[C@H](CCCNC(=N)N)NC1=O [N6PNH2] (H-GFAWNVCVYRNGVRVCHRPAN-NH2; disulfide 7-16 (inferred)) | 77.39–90.34% | 97.16 | worst therapeutic effect | 26.49 | 64 | 16 µg/mL | >64 | >64 | >64 | >52.98 | 64 | 26.49 | 6.62 | 16 | 6.62 to 26.49 | 1.66 to 3.31 | 0 | 2.11 | 0.68 | 1.35 | MIC [5]: 6.62 µM; Permeability (PI-positive cells) (A. veronii ACCC61732 [9]; 4× MIC, 0.5 h): 0%; Permeability (PI-positive cells) (A. veronii ACCC61732 [9]; 4× MIC, 2 h): 1.23%; survival rate of mice (MDR A. veronii ACCC61732; 5 μmol/kg i.p. 0.5 h after infection): 50%; remaining at 2 h (in vitro): 95.2%; remaining at 4.5 h (in vitro): 84.9%; remaining at 6 h (in vitro): 79.9%
